Measured values published in publication PMC7175138, “Synthesis and Bioactivity of Thiazolethioacetamides as Potential Metallo-β-Lactamase Inhibitors” (Antibiotics, 2020).

Assays:
ImiS = ImiS (Aeromonas veronii, UniProt O31272); assay: Enzyme inhibition assay, MβL ImiS, cefazolin as substrate; format: biochemical; settings: 25 °C, 30 min premix
Method: (§1) To test the inhibitory activity of compounds 1–12 against MβLs, three representative MβLs, VIM-2 (B1), ImiS (B2), and L1 (B3), were chosen for evaluation.
(§2) The enzyme inhibition activity assay was carried out on an Agilent-8453 UV-visible spectrometer. […] Cefazolin (Sigma-Aldrich, Burlington, MO, USA), with a concentration of 20 to 140 μM, was taken as the substrate. The enzyme and inhibitor were premixed with the corresponding MβL and the thiazolethioacetamides for 30 min. The IC50 values were measured at 25 °C with the inhibitor concentrations of 0 and 1000 μM, and analyzed through IC50 calculation tool (AAT Bioquest Inc., sunnyvale, CA, USA).

VIM-2 = VIM-2 (Escherichia coli, UniProt Q5U7L7); assay: Enzyme inhibition assay, MβL VIM-2, cefazolin as substrate; format: biochemical; settings: 25 °C, 30 min premix
Method: as §1, §2

Chain of ImiS (O31272 entry or part of it): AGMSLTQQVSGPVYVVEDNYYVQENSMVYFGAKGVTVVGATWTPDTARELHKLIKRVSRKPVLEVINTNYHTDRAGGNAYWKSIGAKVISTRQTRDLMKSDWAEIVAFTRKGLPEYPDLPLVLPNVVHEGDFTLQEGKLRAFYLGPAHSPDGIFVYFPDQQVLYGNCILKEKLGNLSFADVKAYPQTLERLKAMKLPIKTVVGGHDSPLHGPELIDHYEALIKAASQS

| Structure (SMILES) | IC50 (ImiS) [nM] | IC50 (VIM-2) [nM] |
| --- | --- | --- |
| O=C(CSc1nnc(-c2ccccc2O)s1)Nc1ccc(Cl)cc1 [Compound 1] | 580 |  |
| O=C(CSc1nnc(-c2ccccc2O)s1)Nc1cccc(Cl)c1 [Compound 2] | 530 |  |
| O=C(CSc1nnc(-c2ccccc2O)s1)Nc1ccc(Cl)c(Cl)c1 [Compound 3] | 690 |  |
| O=C(CSc1nnc(-c2ccccc2O)s1)Nc1ccc(Cl)cc1Cl [Compound 4] | 580 |  |
| O=C(CSc1nnc(-c2ccccc2O)s1)Nc1ccc(Cl)cc1[N+](=O)[O-] [Compound 5] | 170 |  |
| O=C(CSc1nnc(-c2ccccc2O)s1)Nc1cc(Cl)ccc1[N+](=O)[O-] [Compound 6] | 360 |  |
| O=C(CSc1nnc(-c2ccccc2O)s1)Nc1ccc([N+](=O)[O-])cc1Cl [Compound 7] | 420 |  |
| O=C(CSc1nnc(-c2ccccc2O)s1)Nc1ccc(OC(F)(F)F)cc1 [Compound 8] | 310 | 2200 |
| O=C(CSc1nnc(-c2ccccc2O)s1)Nc1ccc(F)cc1 [Compound 9] | 460 |  |
| O=C(CSc1nnc(-c2ccccc2O)s1)Nc1cccc(F)c1 [Compound 10] | 610 |  |
| O=C(CSc1nnc(-c2ccccc2O)s1)Nc1ccccc1F [Compound 11] | 680 |  |
| O=C(CSc1nnc(-c2ccccc2O)s1)Nc1c(F)cccc1F [Compound 12] | 700 | 19200 |
